The record followed here is patent US11279707B2, “NEK inhibitors and methods of use” (DANA-FARBER CANCER INSTITUTE, INC., priority 2017, dated 2022).

Format in all cases: biochemical
One experiment concerns the target RSK1 (Homo sapiens, UniProt Q15418). The experiment in a line: kinase inhibition, RSK1.
In another experiment the target is NEK6 (Homo sapiens, UniProt Q9HC98). Kind of experiment: kinase inhibition, NEK6.
Another experiment deals with CLK. Kind of experiment: kinase inhibition, CLK.
In a further experiment the target is NEK7 (Homo sapiens, UniProt Q8TDX7). The experiment in a line: kinase inhibition, NEK7.
Sequence of NEK7 (Q8TDX7 whole entry, species assumed): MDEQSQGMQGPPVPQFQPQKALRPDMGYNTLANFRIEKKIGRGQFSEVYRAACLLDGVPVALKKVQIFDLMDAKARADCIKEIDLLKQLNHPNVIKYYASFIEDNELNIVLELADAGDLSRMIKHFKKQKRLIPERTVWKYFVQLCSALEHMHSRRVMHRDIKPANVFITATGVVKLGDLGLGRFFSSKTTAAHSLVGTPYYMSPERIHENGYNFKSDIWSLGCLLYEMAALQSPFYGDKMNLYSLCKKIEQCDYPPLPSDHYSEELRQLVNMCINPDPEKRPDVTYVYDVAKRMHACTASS
The target in a further experiment is T1, NEK9 (Homo sapiens, UniProt Q8TD19).
T1 sequence (Q8TD19 1-979): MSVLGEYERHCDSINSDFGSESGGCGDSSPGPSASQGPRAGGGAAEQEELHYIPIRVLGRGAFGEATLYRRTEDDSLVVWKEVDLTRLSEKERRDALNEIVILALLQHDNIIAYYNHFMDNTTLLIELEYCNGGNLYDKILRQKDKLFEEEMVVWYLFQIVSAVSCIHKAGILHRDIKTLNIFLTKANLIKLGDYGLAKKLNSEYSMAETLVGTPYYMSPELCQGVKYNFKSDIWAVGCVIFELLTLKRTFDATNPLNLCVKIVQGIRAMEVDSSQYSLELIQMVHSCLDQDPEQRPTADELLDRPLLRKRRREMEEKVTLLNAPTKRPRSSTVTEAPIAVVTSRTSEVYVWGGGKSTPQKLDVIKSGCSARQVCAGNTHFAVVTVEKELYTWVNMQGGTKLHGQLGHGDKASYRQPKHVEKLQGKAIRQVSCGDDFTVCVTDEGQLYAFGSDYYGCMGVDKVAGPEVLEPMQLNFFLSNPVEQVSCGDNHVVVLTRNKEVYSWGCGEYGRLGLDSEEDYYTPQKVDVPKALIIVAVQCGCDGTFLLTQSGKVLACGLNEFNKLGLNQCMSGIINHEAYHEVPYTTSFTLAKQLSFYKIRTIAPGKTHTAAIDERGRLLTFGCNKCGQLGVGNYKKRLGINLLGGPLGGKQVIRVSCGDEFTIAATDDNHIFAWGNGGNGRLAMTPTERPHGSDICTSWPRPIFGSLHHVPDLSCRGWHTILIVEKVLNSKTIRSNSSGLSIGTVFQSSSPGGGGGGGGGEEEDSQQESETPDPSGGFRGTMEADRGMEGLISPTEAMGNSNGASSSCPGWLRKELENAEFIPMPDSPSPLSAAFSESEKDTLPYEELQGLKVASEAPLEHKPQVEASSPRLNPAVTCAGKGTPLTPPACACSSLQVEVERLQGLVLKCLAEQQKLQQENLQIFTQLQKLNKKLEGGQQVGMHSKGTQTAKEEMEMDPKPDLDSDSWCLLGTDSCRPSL
Kind of experiment: kinase inhibition, NEK9.

The target in the next experiment is T2, DMPK (Homo sapiens, UniProt Q09013).
T2 sequence (Q09013 1-629): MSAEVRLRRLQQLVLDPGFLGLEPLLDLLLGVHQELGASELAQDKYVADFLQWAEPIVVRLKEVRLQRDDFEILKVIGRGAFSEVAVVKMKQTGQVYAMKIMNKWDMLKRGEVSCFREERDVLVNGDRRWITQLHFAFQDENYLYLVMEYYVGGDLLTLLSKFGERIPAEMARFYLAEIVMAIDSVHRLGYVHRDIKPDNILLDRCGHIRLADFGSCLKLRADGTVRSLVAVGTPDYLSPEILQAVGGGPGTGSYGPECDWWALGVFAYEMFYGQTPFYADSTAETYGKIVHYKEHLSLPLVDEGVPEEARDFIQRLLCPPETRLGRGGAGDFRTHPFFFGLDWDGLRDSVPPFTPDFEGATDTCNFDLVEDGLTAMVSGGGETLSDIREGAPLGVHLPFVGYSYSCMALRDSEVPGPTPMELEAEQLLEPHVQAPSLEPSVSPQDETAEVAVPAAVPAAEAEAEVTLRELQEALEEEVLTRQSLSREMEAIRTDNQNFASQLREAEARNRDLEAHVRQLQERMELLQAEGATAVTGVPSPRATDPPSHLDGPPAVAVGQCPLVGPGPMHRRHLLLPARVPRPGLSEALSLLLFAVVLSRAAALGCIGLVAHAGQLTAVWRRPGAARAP
The experiment in a line: kinase inhibition, DMPK.

The target in the next experiment is GRK4 (Homo sapiens, UniProt P32298). The experiment in a line: kinase inhibition, GRK4.
Sequence of GRK4 (P32298 whole entry, species assumed): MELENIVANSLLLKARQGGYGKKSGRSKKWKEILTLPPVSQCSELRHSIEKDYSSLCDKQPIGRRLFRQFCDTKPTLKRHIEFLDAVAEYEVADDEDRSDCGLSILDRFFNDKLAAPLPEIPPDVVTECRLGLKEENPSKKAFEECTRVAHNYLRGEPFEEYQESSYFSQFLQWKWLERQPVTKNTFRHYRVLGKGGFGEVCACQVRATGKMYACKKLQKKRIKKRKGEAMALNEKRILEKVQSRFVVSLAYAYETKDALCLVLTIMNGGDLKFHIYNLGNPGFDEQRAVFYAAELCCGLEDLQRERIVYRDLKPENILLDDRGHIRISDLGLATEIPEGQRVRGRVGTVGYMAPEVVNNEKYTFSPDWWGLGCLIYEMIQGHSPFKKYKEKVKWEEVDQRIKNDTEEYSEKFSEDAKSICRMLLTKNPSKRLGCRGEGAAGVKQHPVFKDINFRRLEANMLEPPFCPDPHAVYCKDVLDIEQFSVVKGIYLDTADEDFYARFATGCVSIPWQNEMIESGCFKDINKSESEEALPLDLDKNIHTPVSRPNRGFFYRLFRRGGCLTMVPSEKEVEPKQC

Sequence of RSK1 (Q15418 whole entry, species assumed): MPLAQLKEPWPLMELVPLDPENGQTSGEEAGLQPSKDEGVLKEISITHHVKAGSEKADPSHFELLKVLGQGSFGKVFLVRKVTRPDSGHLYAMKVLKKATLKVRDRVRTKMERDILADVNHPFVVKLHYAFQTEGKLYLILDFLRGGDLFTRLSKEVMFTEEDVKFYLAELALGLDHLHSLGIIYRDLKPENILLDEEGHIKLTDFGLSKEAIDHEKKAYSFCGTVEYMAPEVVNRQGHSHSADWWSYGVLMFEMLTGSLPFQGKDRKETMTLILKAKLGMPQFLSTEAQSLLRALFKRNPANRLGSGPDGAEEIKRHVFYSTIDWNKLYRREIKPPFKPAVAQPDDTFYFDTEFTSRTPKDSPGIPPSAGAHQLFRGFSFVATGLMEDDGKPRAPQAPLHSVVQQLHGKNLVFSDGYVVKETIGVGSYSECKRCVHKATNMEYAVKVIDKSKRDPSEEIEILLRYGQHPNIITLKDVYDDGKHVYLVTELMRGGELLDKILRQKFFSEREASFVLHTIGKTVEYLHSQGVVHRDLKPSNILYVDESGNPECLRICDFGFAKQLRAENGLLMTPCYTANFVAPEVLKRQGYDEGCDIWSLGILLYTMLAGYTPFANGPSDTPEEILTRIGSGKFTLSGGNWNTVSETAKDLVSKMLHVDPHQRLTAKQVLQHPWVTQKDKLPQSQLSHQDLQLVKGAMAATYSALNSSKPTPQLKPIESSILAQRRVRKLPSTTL
Sequence of NEK6 (Q9HC98 whole entry, species assumed): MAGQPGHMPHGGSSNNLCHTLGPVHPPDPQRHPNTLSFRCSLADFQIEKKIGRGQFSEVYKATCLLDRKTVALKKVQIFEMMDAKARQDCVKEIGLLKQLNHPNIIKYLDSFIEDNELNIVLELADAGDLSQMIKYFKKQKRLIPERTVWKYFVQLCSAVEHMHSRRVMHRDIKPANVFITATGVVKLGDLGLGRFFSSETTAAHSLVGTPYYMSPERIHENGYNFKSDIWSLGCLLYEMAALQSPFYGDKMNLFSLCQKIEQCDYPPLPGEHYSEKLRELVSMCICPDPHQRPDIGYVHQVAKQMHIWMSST

For `COc1cc(C2CCN(C)CC2)ccc1Nc1ncc2c(n1)n1c(cc3ccccc31)c(=O)n2C` [Compound I-6], the IC50 against RSK1 is 50 to 250 nM; on NEK6, 250 to 1000 nM; on CLK, 50 to 250 nM; against NEK7, 50 to 250 nM; at NEK9, 50 to 250 nM; at DMPK, 250 to 1000 nM.
Consider `CN1CCN(c2ccc(Nc3ncc4c(n3)n3c(cc5ccccc53)c(=O)n4C)cc2C(F)(F)F)CC1` [Compound I-5], for which the IC50 is 1000 to 5000 nM against RSK1; at least 5000 nM on NEK6; 1000 to 5000 nM against CLK; 1000 to 5000 nM against NEK7; 50 to 250 nM against NEK9; at least 5000 nM on DMPK.
In the case of `COc1cc(N2CCC(O)CC2)ccc1Nc1ncc2c(n1)n1c(cc3ccccc31)c(=O)n2C` [Compound I-2], the IC50 on RSK1 was 1000 to 5000 nM; on NEK6 it was 250 to 1000 nM; on CLK, 250 to 1000 nM; against NEK7 it was 50 to 250 nM; against NEK9, 50 to 250 nM; against DMPK, at least 5000 nM.
Regarding `COc1cc(C(=O)N2CCC(N3CCN(C)CC3)CC2)ccc1Nc1ncc2c(n1)n1c(cc3ccccc31)c(=O)n2C` [Compound I-4], the IC50 lay in the range of 250 to 1000 nM on RSK1; 1000 to 5000 nM at NEK6; 50 to 250 nM against CLK; 1000 to 5000 nM at NEK7; 250 to 1000 nM against NEK9; 250 to 1000 nM against DMPK.
On to `CN1CCN(c2ccc(Nc3ncc4c(n3)n3c(cc5ccccc53)c(=O)n4C)cc2)CC1` [Compound I-1], for which the IC50 at RSK1 was 50 to 250 nM; against NEK6, 50 to 250 nM; at CLK, 50 to 250 nM; against NEK7, 250 to 1000 nM; against GRK4, 1000 to 5000 nM; at NEK9 it was at most 50 nM. This compound gave an IC50 on DMPK of 50 to 250 nM.
For `COc1cc(N2CCN(C)CC2)ccc1Nc1ncc2c(n1)n1c(cc3ccccc31)c(=O)n2C` [Compound I-3], the IC50 was 250 to 1000 nM against RSK1; 50 to 250 nM against NEK6; 1000 to 5000 nM against CLK; 50 to 250 nM on NEK7; 50 to 250 nM on NEK9; at least 5000 nM against DMPK.
